Earlier results in publication PMC9558053, “Development of a novel high-throughput screen for the identification of new inhibitors of protein S-acylation” (The Journal of Biological Chemistry, 2022).

Tested on: zDHHC20
Set-up: method as in PMID 34467875, PMID 34309372
Conditions: ref [33], [39]; read-out: IC50 for inhibition of zDHHC20 activity in vitro; cited from earlier work

## C=CC(=O)N(CC#N)CCCCCCCCCCCCCC [N-cyanomethyl-N-myracrylamide]
  IC50: 1350 ± 260 nM
